Calls of active or inactive are those of the source. Cut-off read from the data, not from the text of the source, for most assays here: actives have a measured EC50 and inactives only a lower limit.
Experiments:
[1] = target: T1, Corticotropin-releasing factor receptor 2/Corticotropin-releasing factor-binding protein (Homo sapiens, UniProt P24387+Q13324); assay: Dose Response confirmation of uHTS hits for small molecule antagonists of the CRF-binding protein and CRF-R2 receptor complex.; type: functional; conditions: read-out: IC50_Mean
T1 sequence (Q13324 whole entry): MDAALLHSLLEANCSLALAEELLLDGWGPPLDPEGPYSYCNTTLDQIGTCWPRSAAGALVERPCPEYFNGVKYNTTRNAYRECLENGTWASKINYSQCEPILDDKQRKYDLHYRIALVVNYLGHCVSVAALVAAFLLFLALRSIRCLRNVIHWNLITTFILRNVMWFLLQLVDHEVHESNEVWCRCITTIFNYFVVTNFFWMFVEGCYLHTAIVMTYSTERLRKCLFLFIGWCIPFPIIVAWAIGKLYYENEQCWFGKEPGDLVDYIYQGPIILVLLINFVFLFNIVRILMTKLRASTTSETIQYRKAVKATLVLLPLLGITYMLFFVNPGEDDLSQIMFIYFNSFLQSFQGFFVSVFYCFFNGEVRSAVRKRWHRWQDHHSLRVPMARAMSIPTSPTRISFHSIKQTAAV
T1 sequence (P24387 whole entry): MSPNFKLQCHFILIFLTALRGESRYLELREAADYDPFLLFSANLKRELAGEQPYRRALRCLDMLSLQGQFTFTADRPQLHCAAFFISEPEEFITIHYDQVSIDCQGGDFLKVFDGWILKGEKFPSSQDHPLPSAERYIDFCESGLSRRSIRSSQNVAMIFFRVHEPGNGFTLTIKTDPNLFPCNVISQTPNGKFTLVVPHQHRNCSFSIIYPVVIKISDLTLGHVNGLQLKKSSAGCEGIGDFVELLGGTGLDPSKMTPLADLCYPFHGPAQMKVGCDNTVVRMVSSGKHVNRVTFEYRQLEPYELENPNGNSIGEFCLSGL

[2] = target: T1, Corticotropin-releasing factor receptor 2/Corticotropin-releasing factor-binding protein; assay: activators of CRF receptor 2 with binding protein – uHTS hits, confirmation (AID 602473); type: functional; conditions: read-out: EC50_Mean
Large T antigen = Large T antigen (Simian virus 40, UniProt P03070); type: functional, Betapolyomavirus macacae;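 note: Confirmatory-stage PubChem screen for compounds that inhibit SV40 T antigen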
Chain of Large T antigen (P03070 whole entry): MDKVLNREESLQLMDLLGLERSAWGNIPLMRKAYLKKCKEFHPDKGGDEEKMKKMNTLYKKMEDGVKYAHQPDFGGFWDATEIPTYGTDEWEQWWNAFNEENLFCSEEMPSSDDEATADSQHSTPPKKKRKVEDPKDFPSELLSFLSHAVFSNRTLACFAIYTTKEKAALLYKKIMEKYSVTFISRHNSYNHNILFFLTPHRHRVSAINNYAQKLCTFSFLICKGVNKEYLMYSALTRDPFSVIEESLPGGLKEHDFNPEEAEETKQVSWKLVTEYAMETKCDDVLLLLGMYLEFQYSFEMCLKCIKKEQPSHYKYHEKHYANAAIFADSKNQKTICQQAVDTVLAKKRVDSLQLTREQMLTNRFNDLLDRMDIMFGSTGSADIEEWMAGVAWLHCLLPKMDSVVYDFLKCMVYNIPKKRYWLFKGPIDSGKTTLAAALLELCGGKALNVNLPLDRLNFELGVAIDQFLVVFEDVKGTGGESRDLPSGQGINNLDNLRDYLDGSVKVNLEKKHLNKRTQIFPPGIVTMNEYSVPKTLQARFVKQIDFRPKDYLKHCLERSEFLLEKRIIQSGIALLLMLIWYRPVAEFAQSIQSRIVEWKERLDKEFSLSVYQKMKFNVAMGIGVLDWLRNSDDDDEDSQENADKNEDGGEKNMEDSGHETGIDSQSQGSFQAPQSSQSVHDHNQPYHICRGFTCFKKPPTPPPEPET

Streptokinase A = target: T2, Streptokinase A (Streptococcus pyogenes serotype M1, UniProt P10520); assay: viability-normalized secreted streptokinase activity reduction – plasminogen activation absorbance, OD405, dose response (AID 1914); type: functional, Streptococcus pyogenes M1 GAS;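 note: secreted streptokinase activity via plasminogen activation per viability signal from cell pellet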
T2 sequence (P10520 whole entry): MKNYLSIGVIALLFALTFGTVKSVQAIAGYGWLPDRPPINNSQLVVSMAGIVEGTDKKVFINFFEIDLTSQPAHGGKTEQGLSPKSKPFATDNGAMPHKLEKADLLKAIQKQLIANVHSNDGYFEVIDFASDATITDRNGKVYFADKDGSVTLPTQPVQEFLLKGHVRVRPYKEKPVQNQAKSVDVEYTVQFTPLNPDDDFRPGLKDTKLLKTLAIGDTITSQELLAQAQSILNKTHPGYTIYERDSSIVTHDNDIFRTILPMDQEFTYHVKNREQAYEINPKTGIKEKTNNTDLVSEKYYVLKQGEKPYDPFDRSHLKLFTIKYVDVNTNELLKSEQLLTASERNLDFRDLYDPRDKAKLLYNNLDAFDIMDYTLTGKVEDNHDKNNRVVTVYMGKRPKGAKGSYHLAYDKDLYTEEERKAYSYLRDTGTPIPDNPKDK

Streptococcus = assay: GAS UMAA2166 growth inhibition – luminescence, BacTiterGlo, counter-screen for streptokinase expression inhibitor project, dose response (AID 1915); type: functional, organism-based;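 note: potency for reduction of bacterial viability or growth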
[3] = luciferase reporter signal suppression in cells – H4 neuroglioma cells, luminescence, dose response (AID 1990); type: functional, cell-based
[4] = alpha-synuclein stem-loop luciferase translation blockers – H4 neuroglioma cells, luminescence, confirmation (AID 1988); type: functional, cell-based
[5] = Luminescence Cell-Based Dose Response HTS to Identify Inhibitors of 5'UTR Stem-Loop Driven Prion Protein mRNA Translation in H4 Neuroglioblastoma Cells. [Related pubchem assays: 1827 (Project Summary), 1813 (Primary HTS)]; type: functional
Protein RecA = target: T3, Protein RecA (Mycobacterium tuberculosis, UniProt P9WHJ3); assay: Fluorescence Cell-Free Homogeneous Dose Retest to Identify Inhibitors of RecA-Intein Splicing Activity. [Related pubchem assays (depositor defined):AID2097, AID2223, AID489010, AID492950]; type: functional
T3 sequence (P9WHJ3 whole entry): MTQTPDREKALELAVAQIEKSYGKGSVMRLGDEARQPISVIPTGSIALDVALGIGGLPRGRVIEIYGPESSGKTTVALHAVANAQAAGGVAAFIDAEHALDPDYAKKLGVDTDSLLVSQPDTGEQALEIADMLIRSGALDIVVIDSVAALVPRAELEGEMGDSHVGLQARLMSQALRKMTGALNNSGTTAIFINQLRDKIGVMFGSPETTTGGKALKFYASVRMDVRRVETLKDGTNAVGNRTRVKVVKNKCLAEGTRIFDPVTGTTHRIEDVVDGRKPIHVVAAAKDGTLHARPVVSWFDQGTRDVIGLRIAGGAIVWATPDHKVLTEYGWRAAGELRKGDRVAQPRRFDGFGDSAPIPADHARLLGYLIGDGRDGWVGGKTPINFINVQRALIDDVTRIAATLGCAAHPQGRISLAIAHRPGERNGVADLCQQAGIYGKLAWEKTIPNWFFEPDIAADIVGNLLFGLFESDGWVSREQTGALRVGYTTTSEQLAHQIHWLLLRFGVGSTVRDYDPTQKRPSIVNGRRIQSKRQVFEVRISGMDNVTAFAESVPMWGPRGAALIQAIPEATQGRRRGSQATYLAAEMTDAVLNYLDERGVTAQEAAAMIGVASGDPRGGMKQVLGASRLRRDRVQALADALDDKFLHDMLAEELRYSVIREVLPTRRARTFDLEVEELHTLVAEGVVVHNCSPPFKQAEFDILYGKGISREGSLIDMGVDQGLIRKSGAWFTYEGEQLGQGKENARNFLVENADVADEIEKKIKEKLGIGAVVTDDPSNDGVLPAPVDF

[6] = viability of uninfected HEp-2 cells – cell-based, HTS, cytotoxicity control for RSV inhibitor project, dose response (AID 2410); type: functional; conditions: human respiratory syncytial virus
[7] = target: T4, Replicative DNA helicase DnaB (Mycobacterium tuberculosis, UniProt P9WMR3); assay: DnaB intein splicing inhibitors, dose response, biochemical, cell-free fluorescence (AID 449749); type: functional
T4 sequence (P9WMR3 whole entry): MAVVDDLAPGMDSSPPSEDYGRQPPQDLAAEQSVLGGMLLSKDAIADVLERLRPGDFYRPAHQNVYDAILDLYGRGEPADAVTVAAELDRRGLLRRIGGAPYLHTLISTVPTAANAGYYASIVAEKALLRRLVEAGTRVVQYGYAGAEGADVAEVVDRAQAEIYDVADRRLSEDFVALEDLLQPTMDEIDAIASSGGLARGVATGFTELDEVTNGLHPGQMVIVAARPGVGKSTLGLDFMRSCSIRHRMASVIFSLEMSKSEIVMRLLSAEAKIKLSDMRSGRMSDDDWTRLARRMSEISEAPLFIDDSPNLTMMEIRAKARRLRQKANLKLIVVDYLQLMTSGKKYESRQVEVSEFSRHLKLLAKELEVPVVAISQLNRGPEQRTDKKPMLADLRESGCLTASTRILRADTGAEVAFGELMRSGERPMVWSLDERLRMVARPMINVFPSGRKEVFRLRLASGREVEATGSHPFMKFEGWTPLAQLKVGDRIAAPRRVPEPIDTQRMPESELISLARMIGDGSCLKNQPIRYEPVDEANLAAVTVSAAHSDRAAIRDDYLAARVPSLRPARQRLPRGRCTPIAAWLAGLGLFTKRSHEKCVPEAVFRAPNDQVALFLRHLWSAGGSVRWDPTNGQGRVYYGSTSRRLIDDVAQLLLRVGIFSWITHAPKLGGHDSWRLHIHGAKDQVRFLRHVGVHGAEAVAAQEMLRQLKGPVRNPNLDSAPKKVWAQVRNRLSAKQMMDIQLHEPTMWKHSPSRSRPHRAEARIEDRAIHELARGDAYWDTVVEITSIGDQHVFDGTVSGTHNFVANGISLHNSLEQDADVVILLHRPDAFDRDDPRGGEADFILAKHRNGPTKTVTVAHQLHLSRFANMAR

O=C(Nc1ccccc1Oc1cccnc1)C1CCCN(Cc2ccccc2O)C1 (centres undefined)
IC50 [1]: > 47.1 µM (inactive)
EC50 [2]: > 53 µM (inactive)

CCOC(=O)c1c(C)c(C(=O)Nc2ccc(N(C)C)cc2)c(C)n1CC
IC50 (Large T antigen): 15.1 µM (active)

CCCOc1ccc(Cc2c(Cl)nc(SC)nc2OC)cc1
EC50 (Streptokinase A): 57.2 µM (active)
EC50 (Streptococcus): > 150 µM (not active)

Nc1c(C(=O)NCc2ccc3c(c2)OCO3)nnn1CC(=O)Nc1ccc(Br)cc1
EC50 [3]: > 120 µM (not active)
EC50 [4]: 18.3 µM (active)
EC50 [5]: > 120 µM (not active)

COc1cc2c(cc1OC)C1(Nc3c-2c(Cc2ccccc2)nn3-c2ccccc2)C(=O)Nc2ccccc21 (centres undefined)
EC50 (Protein RecA): > 380 µM (inactive)
CC50 [6]: > 50 µM (active)
AC50 [7]: > 380 µM (inactive)

CN(C)c1ccc(NC(=O)CN2CCN(c3ccc(F)cc3)CC2)cc1
IC50 (Large T antigen): 5.83 µM (active)

COc1ccc(/C=N/NC(=O)c2ccccc2NC(=O)c2ccco2)c(OC)c1
IC50 [1]: > 47.1 µM (inactive)
EC50 [2]: > 53 µM (inactive)

CCOC(=O)c1c(NC(=O)CSc2nnc(-c3c[nH]c4ccccc34)n2CCOC)sc2c1CCCC2
EC50 (Protein RecA): > 380 µM (inactive)
AC50 [7]: 20.2 µM (active)

COc1cccc(-n2c(=O)c3ccccc3n3c(S)nnc23)c1
IC50 (Large T antigen): 19.1 µM (active)

CC(/C=C1\SC(=S)N(NC(=O)c2cccc(O)c2)C1=O)=C\c1ccccc1
EC50 (Protein RecA): 25.2 µM (active)
AC50 [7]: 15 µM (active)

Cc1ccc(NC(=O)c2ccc(S(=O)(=O)N3CCC(C)CC3)cc2)cc1
EC50 [3]: > 120 µM (not active)
EC50 [4]: 12 µM (active)
EC50 [5]: 38.7 µM (active)

NNc1nnc(S)n1N
EC50 (Protein RecA): 86.4 µM (active)
AC50 [7]: > 380 µM (inactive)

Cc1ccc(S(=O)(=O)N2CCOCC2)cc1C(=O)NC1CCN(Cc2ccccc2)CC1
IC50 [1]: > 47.1 µM (inactive)
EC50 [2]: > 53 µM (inactive)

O=C(Nc1ccc(O)cc1)/C(=C/c1ccco1)NC(=O)c1ccccc1
IC50 (Large T antigen): 11 µM (active)

COC(=O)c1sc(-c2cccs2)cc1NC(=O)/C=C/C(=O)O
EC50 (Protein RecA): 15.2 µM (active)
AC50 [7]: 82.9 µM (active)

Source: ChEMBL document CHEMBL1201862, “PubChem BioAssay data set” (2004)
